Results taken from US20060211606A1, “Peptides” (priority 2005, published 2006).
One block for each substance: values may come before it. Where no end group is shown, it is not given here. [ ]: non-standard residue; d: D form. The star is where a group is joined. Hexanoyl = CCCCCC(=O)*; PEG = not defined here; Ahx = NCCCCCC(=O)O

Tests used:
C2C12 muscle cells [1] = test: C2C12 proliferation, BrdU incorporation; type: cell-based, mouse; settings: 500 cells per well; 0.1, 1, 10 and 100 ng/ml; stimulation 24 hours, BrdU 5 hours
Experimental: (B) Peptides A2, A4, A6 and A8: C2C12 muscle cells at a 500 cells/well. Cultivation was carried out for 24 hours in 10% FBS, followed by starvation for 24 hours in 0.1% BSA, stimulation for 24 hours and then treatment with BrdU for 5 hours. Concentrations of 0.1, 1, 10 and 100 ng/ml of peptides A2, A4, A6 and A8 were tested, along with 0.1, 1, 10 and 100 ng/ml IGF-I (See the right-hand set of results). BrdU incorporation was measured to assess the level of cell proliferation achieved. Controls containing no cells, medium only, 5% FBS and no BrdU were also provided. Values on the Y-axis are for fluorescence (absorbence at 370 nm; mean plus standard error across 4 wells). The first column on the left relates to a control in which no cells were present. The next four relate to peptide A2 at concentrations of 0.1, 1, 10 and 100 ng/ml. The next four relate to peptide A4 at concentrations of 0.1, 1, 10 and 100 ng/ml. The central three relate to controls containing medium only (med), 5% FBS) and no BrdU. The next four relate to peptide A6 at concentrations of 0.1, 1, 10 and 100 ng/ml. The next four relate to peptide A8 at concentrations of 0.1, 1, 10 and 100 ng/ml. The right-hand group of results relate to IGF-I (See Example 1.5) at concentrations of 0.1, 1, 10 and 100 ng/ml.
The 8 amino acid peptides described in 1.3.2 above and referred to in FIG. 8B as A2, A4, A6 and A8 were tested for the ability to induce proliferation of C2C12 muscle cells at a density of 500 cells per well. Cultivation was carried out for 24 hours in 10% FBS, followed by starvation for 24 hours in 0.1% BSA, stimulation for 24 hours and then treatment with BrdU for 5 hours. Concentrations of 0.1, 1, 10 and 100 ng/ml of peptides A2, A4, A6 and A8 were tested, along with 0.1, 1, 10 and 100 ng/ml IGF-I (See the right-hand set of results in FIG. 8B). Incorporation of BrdU was measured to assess the level of cell proliferation achieved. Controls containing no cells, medium only, 5% FBS and no BrdU were also provided.

C2C12 muscle cells [2] = test: C2C12 proliferation, Alamar Blue assay; type: cell-based, mouse; settings: 2000 cells per well; 2, 5, 50 and 100 ng/ml; medium with IGF-I 2 ng per ml; 36 hours
Experimental: (A) DMGF and CMGF Peptides: C2C12 Cells were provided at 2000 cell/well, in a medium containing DMEM (1000 mg/L glucose), plus BSA(100 ug/ml), plus IGF-I (2 ng per ml) and incubated for 36 hours. Cell proliferation was then assessed using an Alamar Blue assay. […] Y-axis values are fluorescence (wavelength of excitation 535 nm, measurement at 590 nm; mean plus standard error) in an Alamar Blue assay.
The 8 amino acid peptides described in 1.3.1 above and referred to in FIG. 8A as DMGF and CMGF were tested for the ability to induce proliferation of C2C12 muscle cells at a density of 2000 cells per well in a medium containing DMEM (1000 mg/L glucose), BSA (10 ug/ml) and IGF-I (2 ng per ml). Concentrations of 2, 5, 50 and 100 ng/ml of DMGF and CMGF were tested (See the left-hand and middle sets of results in FIG. 8), along with 2, 5, 50 and 100 ng/ml IGF-I alone (See the right-hand set of results in FIG. 8). After 36 hours incubation, an Alamar Blue assay was used to assess the level of cell proliferation achieved. A control containing only the medium was also provided.

[3] = test system: mononucleated myoblasts (satellite cells); test: Myoblast replication, cell number by Alamar Blue method (0 to 3 scale); type: cell-based
Experimental: FIG. 2: Effect of Alanine substitution and C-terminal and N-terminal truncation on stability and biological activity—further sequence alignment, comparing modified sequences of Peptides 1-6 (SEQ ID NOS: 15-20) and Short peptides 1-4 (SEQ NOS: 21-24), and detailing impact of changes on stability as measured by incubation in human plasma and biological activity as measured by testing on muscle cell line (see Examples for details of test procedures).
In this regard, one method of assessing biological activity is the Alamar Blue method as discussed in Example 5.2.2. This involves contacting a polypeptide with mononucleated myoblast cells and assessing the extent to which it causes them to proliferate. This can be scored in any suitable way, e.g. on a scale of 0 to 3 as discussed in the Examples. Activity may also be measured via cyclins, such as cyclin ID, which are early markers of cell division. Activity may also be measured via the use of bromodeoxy uridine (BrdU).
Biological activity was determined using an in vitro system by measuring the ability of the C terminal peptides to induce mononucleated myoblasts (satellite cells) to replicate. Cell number was determined using the Alamar Blue method.

[4] = Stability to proteolytic cleavage in fresh human plasma, Western blotting
Experimental: Western blotting was then used to assess the survival of each peptide over those time intervals: A=0 minutes; B=30 minutes; C=2 hours; D=24 hours.
Stability may be assessed in terms of half-life in human plasma or by any other suitable technique. In particular, stability can be measured by assessing peptides' susceptibility to proteolytic cleavage in fresh human plasma according to the technique of Example 5.1 below, in which the plasma was stored until used at −70° C., 10 μg of peptide was added to 2 ml of plasma, plus 7 ml of PBS and the mixture was incubated at 37° C. for different time intervals. Western blotting was then used to detect each peptide over those time intervals.
The plasma was stored until used at −70° C. 10 μg of peptide were added to 2 ml of plasma, plus 7 ml of PBS. This mixture was incubated at 37° C. for different time intervals.
Like biological activity, stability was scored on a scale of 0 to 3.
Stability was determined as the amount of the peptide that remained intact and bound to the specific antibody in the following way:

Substance: A2: Gly-Ser-Thr-Phe-Glu-Glu-Arg-Lys (SEQ ID NO:34), amidated at the C-terminus, unmodified at the N-terminus (H-GSTFEERK-NH2) [Peptide A2]
- proliferation of C2C12 cells (BrdU incorporation) (C2C12 muscle cells [1]): induced cell proliferation

Substance: A4: Gly-Ser-Thr-Phe-Glu-Glu-Arg-Lys (SEQ ID NO:34), amidated at the C-terminus, hexanoic acid moiety at the N-terminus (Hexanoyl-GSTFEERK-NH2; SMILES CCCCCC(=O)NCC(=O)N[C@@H](CO)C(=O)N[C@H](C(=O)N[C@@H](Cc1ccccc1)C(=O)N[C@@H](CCC(=O)O)C(=O)N[C@@H](CCC(=O)O)C(=O)N[C@@H](CCCNC(=N)N)C(=O)N[C@@H](CCCCN)C(N)=O)[C@@H](C)O) [Peptide A4]
- proliferation of C2C12 cells (BrdU incorporation) (C2C12 muscle cells [1]): induced cell proliferation

Substance: A6: Gly-Ser-Thr-Phe-Glu-Glu-Arg-Lys (SEQ ID NO:34), amidated at the C-terminus, amino-hexanoic acid moiety at the N-terminus ([Ahx]GSTFEERK-NH2; N-terminus assumed; SMILES C[C@@H](O)[C@H](NC(=O)[C@H](CO)NC(=O)CNC(=O)CCCCCN)C(=O)N[C@@H](Cc1ccccc1)C(=O)N[C@@H](CCC(=O)O)C(=O)N[C@@H](CCC(=O)O)C(=O)N[C@@H](CCCNC(=N)N)C(=O)N[C@@H](CCCCN)C(N)=O) [Peptide A6]
- proliferation of C2C12 cells (BrdU incorporation) (C2C12 muscle cells [1]): induced cell proliferation

Substance: A8: Gly-Ser-Thr-Phe-Glu-Glu-His-Lys (SEQ ID NO:33), amidated at the C-terminus, hexanoic acid at the N-terminus (Hexanoyl-GSTFEEHK-NH2; SMILES CCCCCC(=O)NCC(=O)N[C@@H](CO)C(=O)N[C@H](C(=O)N[C@@H](Cc1ccccc1)C(=O)N[C@@H](CCC(=O)O)C(=O)N[C@@H](CCC(=O)O)C(=O)N[C@@H](Cc1c[nH]cn1)C(=O)N[C@@H](CCCCN)C(N)=O)[C@@H](C)O) [Peptide A8]
- proliferation of C2C12 cells (BrdU incorporation) (C2C12 muscle cells [1]): induced cell proliferation

Substance: CMGF: Gly-Ser-Thr-Phe-Glu-Glu-His-Lys (SEQ ID NO:33), N-terminal hexanoic acid, amidated at the C-terminal end (Hexanoyl-GSTFEEHK-NH2; SMILES CCCCCC(=O)NCC(=O)N[C@@H](CO)C(=O)N[C@H](C(=O)N[C@@H](Cc1ccccc1)C(=O)N[C@@H](CCC(=O)O)C(=O)N[C@@H](CCC(=O)O)C(=O)N[C@@H](Cc1c[nH]cn1)C(=O)N[C@@H](CCCCN)C(N)=O)[C@@H](C)O)
- proliferation of C2C12 cells (Alamar Blue fluorescence) (C2C12 muscle cells [2]): induced cell proliferation

Substance: DMGF: Gly-Ser-Thr-Phe-Glu-Glu-His-Lys (SEQ ID NO:33), N-terminal PEGylation, amidated at the C-terminal end ({PEG}-GSTFEEHK-NH2; reading uncertain; also: printed as Gly-Ser-Thr-Phe-Glu-Glu-His-Lys)
- proliferation of C2C12 cells (Alamar Blue fluorescence) (C2C12 muscle cells [2]): induced cell proliferation

Substance: Short peptide 2: SEQ ID NO: 15 with Arg14→Ala and the four C-terminal amino acids removed (YQPPSTNKNTKSQARKGSTF)
- biological activity score (scale of 0 to 3) [3]: zero

Substance: Short peptide 3: SEQ ID NO: 15 with Arg14→Ala and the three N-terminal amino acids removed (PSTNKNTKSQARKGSTFEEHK)
- biological activity score (scale of 0 to 3) [3]: zero

Substance: Short peptide 4: SEQ ID NO: 15 with Arg14→Ala and the five N-terminal amino acids removed (TNKNTKSQARKGSTFEEHK)
- biological activity score (scale of 0 to 3) [3]: zero

Substance: YQPPSTNKNTKAQRRKGSTFEEHK [Peptide 3]
- biological activity score (scale of 0 to 3) [3]: 3 (significant increase in cell number at 1 h.)

Substance: YQPPSTNKNTKSQAAKGSTFEEHK [Peptide 6]
- biological activity score (scale of 0 to 3) [3]: zero

Substance: YQPPSTNKNTKSQRRKGSTFEEHK [Peptide 1]
- biological activity (in words) [3]: little or no activity
- stability score (scale of 0 to 3) ([4]; fresh human plasma, Western blotting, intact peptide bound to specific antibody): 1 (marked loss of detectable antibody binding by ½ hours.)

- half-life in human plasma ([4]; human plasma): short half-life
Substance: YQPPSTNKNTKSQRRKGSTFEERK [native human MGF C terminal Ec peptide, reference compound]
